{"source": "patent US20230381309A1", "about": "“METHODS OF TREATING DIFFUSE LARGE B-CELL LYMPHOMA” (IMMUNOVACCINE TECHNOLOGIES INC., priority 2020, published 2023)", "origin": "cited, not measured here", "system": "relapsed/refractory DLBCL", "note": "Where two headings read alike, the source gives them in different places.", "data": [{"substance": "nivolumab: PD1 antibody (Opdivo; Bristol-Myers Squibb)", "values": [{"measurement": "objective response rate", "setting": "patients having failed autologous transplantation", "result": 10, "unit": "%"}, {"measurement": "objective response rate", "setting": "patients ineligible for autologous transplantation", "result": 3, "unit": "%"}]}]}
